Experimental data published in US11806326B2, “Methods for dopamine modulation in human neurologic diseases” (priority 2018, dated 2023).
Like-named read-outs stand apart in the source and are kept apart here.

How the values were obtained:
tyrosine hydroxylase [1] = target: T1, tyrosine hydroxylase (Bos taurus, UniProt P17289); details: cited from earlier work
T1 construct: in bovine adrenal gland preparations; from tissue; host or cells: bovine (beef) adrenal gland
T1 sequence (P17289 1-491): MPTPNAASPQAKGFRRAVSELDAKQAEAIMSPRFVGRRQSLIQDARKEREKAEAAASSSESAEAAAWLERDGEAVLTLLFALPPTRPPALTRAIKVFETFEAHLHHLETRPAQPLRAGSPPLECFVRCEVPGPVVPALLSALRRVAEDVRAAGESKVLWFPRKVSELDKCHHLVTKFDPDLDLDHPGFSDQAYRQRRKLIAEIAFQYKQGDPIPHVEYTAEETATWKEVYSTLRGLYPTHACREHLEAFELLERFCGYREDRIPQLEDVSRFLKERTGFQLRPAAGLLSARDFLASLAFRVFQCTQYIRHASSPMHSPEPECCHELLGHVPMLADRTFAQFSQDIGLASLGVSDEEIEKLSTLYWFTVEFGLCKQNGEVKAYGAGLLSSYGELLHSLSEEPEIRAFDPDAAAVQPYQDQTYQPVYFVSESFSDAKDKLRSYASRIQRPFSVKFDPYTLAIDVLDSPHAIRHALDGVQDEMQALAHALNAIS

tyrosine hydroxylase [2] = details: cited from earlier work
tyrosine hydroxylase [3] = target: tyrosine hydroxylase (Homo sapiens, UniProt P07101); details: cited from earlier work
[4] = tested on: spontaneously hypertensive rats; details: cited from earlier work
[5] = delivered orally, cited from earlier work
[6] = tested on: dopaminergic iPS cells originating from DJ-1 homozygous Parkinson's patients; test: Chronic inhibition of dopamine synthesis in dopaminergic iPS cells from DJ-1 homozygous Parkinson's patients; type: cell-based, human; details: chronic AMPT treatment, FIG. 5
[7] = Table 1A, amino acid analogs inhibiting tyrosine hydroxylase, read-out: Concentration for 50% Inhibition
[8] = Table 1A, concentration 10^−4 M
[9] = Table 1B, catecholamine analogs inhibiting tyrosine hydroxylase, read-out: Concentration for 50% Inhibition
[10] = Table 1B, concentration 10^−4 M

tyrosine hydroxylase (Homo sapiens, UniProt P07101), sequence (P07101 whole entry): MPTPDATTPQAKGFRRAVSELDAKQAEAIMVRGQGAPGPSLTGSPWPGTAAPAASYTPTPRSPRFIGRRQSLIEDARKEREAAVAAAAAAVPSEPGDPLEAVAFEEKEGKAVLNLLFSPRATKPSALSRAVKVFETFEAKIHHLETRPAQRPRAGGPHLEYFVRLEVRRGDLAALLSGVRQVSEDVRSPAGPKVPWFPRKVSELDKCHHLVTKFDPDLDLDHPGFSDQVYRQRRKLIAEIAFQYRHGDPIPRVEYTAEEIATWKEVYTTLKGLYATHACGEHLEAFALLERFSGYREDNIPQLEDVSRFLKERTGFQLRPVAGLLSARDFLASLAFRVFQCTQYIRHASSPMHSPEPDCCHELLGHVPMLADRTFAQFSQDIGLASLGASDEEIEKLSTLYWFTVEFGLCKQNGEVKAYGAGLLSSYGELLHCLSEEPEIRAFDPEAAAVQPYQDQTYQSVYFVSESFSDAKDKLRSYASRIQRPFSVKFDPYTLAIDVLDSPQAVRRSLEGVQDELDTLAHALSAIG

In the case of `CC(N)(Cc1ccc(O)c(Br)c1)C(=O)O` (racemic) [3-bromo-α-methyl-DL-tyrosine], the IC50 (tyrosine hydroxylase [1]; [7]) is given as 1.5 µM.

For `COc1ccc(CC(C)(N)C(=O)O)cc1Cl` (racemic) [3-chloro-4-methoxy-α-methyl-DL-phenylalanine], the IC50 (tyrosine hydroxylase [1]; [7]) is given as 500 µM.

For `CC(N)(Cc1ccc(O)c(Cl)c1)C(=O)O` (racemic) [3-chloro-α-methyl-DL-tyrosine], the IC50 (tyrosine hydroxylase [1]; [7]) is listed as 5 µM.

For `CC(N)(Cc1ccc(O)c(F)c1)C(=O)O` (racemic) [3-fluoro-α-methyl-DL-tyrosine], the IC50 (tyrosine hydroxylase [1]; [7]) is given as 200 µM.

In the case of `CC(N)(Cc1ccc(O)c(I)c1)C(=O)O` (racemic) [3-iodo-α-methyl-DL-tyrosine], the IC50 (tyrosine hydroxylase [1]; [7]) is listed as 0.3 µM.

For `NC[C@H](O)c1ccc(O)c(O)c1` (racemic) [DL-norepinephrine], the “% Inhibition” value (tyrosine hydroxylase [2]; Table 1B, concentration 2 × 10^−4 M) is given as 53%.

For `NC(Cc1ccc(F)cc1)C(=O)O` (racemic) [DL-p-fluoro-phenylalanine], the “% Inhibition” value (tyrosine hydroxylase [2]; [8]) is given as 61%.

For `CC(N)(Cc1ccccc1)C(=O)O` (racemic) [α-methyl-DL-phenylalanine], the IC50 (tyrosine hydroxylase [1]; [7]) is listed as 80 µM.

For `CC(N)(Cc1cccc(O)c1)C(=O)O` (racemic) [α-methyl-m-DL-tyrosine], the “% Inhibition” value (tyrosine hydroxylase [2]; Table 1A, concentration 2 × 10−4 M) is given as 92% and the IC50 (tyrosine hydroxylase [1]; [7]) is given as over 1000 µM.

In the case of `NC(=O)Cc1ccc(O)c(O)c1` [3,4-dihydroxyphenyl-acetamide], the IC50 (tyrosine hydroxylase [1]; [9]) is listed as 1000 µM.

In the case of `CCCC(C(N)=O)c1ccc(O)c(O)c1` (stereo not drawn) [3,4-dihydroxyphenyl-propyl-acetamide], the “% Inhibition” value (tyrosine hydroxylase [2]; [10]) is given as 84% and the IC50 (tyrosine hydroxylase [1]; [9]) is given as 20 µM.

For `N[C@H](Cc1ccc(O)c(O)c1)C(=O)O` [3,4-hydroxy-D-phenylalanine], the IC50 (tyrosine hydroxylase [1]; [9]) is listed as over 4000 µM.

For `N[C@@H](Cc1ccc(O)c(O)c1)C(=O)O` [3,4-hydroxy-L-phenylalanine], the IC50 (tyrosine hydroxylase [1]; [9]) is listed as 2000 µM.

In the case of `N[C@@H](Cc1cc(Br)c(O)c(Br)c1)C(=O)O` [3,5-dibromo -L-tyrosine], the IC50 (tyrosine hydroxylase [1]; [7]) is given as 500 µM.

For `N[C@@H](Cc1ccc(O)c(Cl)c1)C(=O)O` [3-chloro-L-tyrosine], the IC50 (tyrosine hydroxylase [1]; [7]) is given as 10 µM.

In the case of `N[C@@H](Cc1ccc(O)c(I)c1)C(=O)O` [3-iodo-L-tyrosine], the IC50 (tyrosine hydroxylase [1]; [7]) is given as 0.5 µM.

For `N[C@H](Cc1ccc(O)c(O)c1)C(=O)O` [D-dopa], the “% Inhibition” value (tyrosine hydroxylase [2]; [10]) is listed as 0%.

In the case of `CNC[C@H](O)c1ccc(O)c(O)c1` [D-epinephrine], the “% Inhibition” value (tyrosine hydroxylase [2]; [10]) is listed as 47%.

In the case of `N[C@H](Cc1ccccc1)C(=O)O` [D-phenylalanine], the “% Inhibition” value (tyrosine hydroxylase [2]; [8]) is listed as 7% and the IC50 (tyrosine hydroxylase [1]; [7]) is listed as over 1000 µM.

For `N[C@H](Cc1c[nH]c2ccccc12)C(=O)O` [D-tryptophan], the “% Inhibition” value (tyrosine hydroxylase [2]; [8]) is given as 0%.

In the case of `N[C@@H](Cc1ccc(O)c(O)c1)C(=O)O` [L-dopa], the “% Inhibition” value (tyrosine hydroxylase [2]; [10]) is given as 68%.

In the case of `CNC[C@H](O)c1ccc(O)c(O)c1` [L-epinephrine], the “% Inhibition” value (tyrosine hydroxylase [2]; [10]) is listed as 35%.

For `NC[C@@H](O)c1ccc(O)c(O)c1` [L-norepinephrine], the IC50 (tyrosine hydroxylase [1]; [9]) is given as 1000 µM.

In the case of `N[C@@H](Cc1ccccc1)C(=O)O` [L-phenylalanine], the “% Inhibition” value (tyrosine hydroxylase [2]; [8]) is listed as 78% and the IC50 (tyrosine hydroxylase [1]; [7]) is listed as 200 µM.

For `N[C@@H](Cc1c[nH]c2ccccc12)C(=O)O` [L-tryptophan], the “% Inhibition” value (tyrosine hydroxylase [2]; [8]) is given as 50% and the IC50 (tyrosine hydroxylase [1]; [7]) is given as over 1000 µM.

For `CCC[C@H]1CCC(=C2C(=O)CCC2=O)O1` [Oudenone, oudenone], the “tyrosine hydroxylase inhibition (in words)” value (tyrosine hydroxylase [3]; directly measured) is given as “inhibit tyrosine hydroxylase” and the “effect on blood pressure” value [4] is given as “reduce blood pressure”.

In the case of `C[C@H]1O[C@@H](c2ccc3c(c2O)C(=O)C2=C(C3=O)[C@@]3(O)C(=O)C[C@](C)(O)C[C@@]3(O)C=C2)C[C@@H](O)[C@@H]1O` [aquayamycin], the “potency as tyrosine hydroxylase inhibitor (in words)” value (tyrosine hydroxylase [3]; compared with 3-iodo-α-methyl-DL-tyrosine) is given as “near that reported for 3-iodo-α-methyl-DL-tyrosine”.

In the case of `NCCc1ccc(O)c(O)c1` [dopamine], the “% Inhibition” value (tyrosine hydroxylase [2]; [10]) is given as 56%.

In the case of `C[C@@](N)(Cc1ccc(O)c(O)c1)C(=O)O` [α-methyl-3,4-dhydroxy-D-phenylalanine], the IC50 (tyrosine hydroxylase [1]; [9]) is listed as over 8000 µM.

For `C[C@](N)(Cc1ccc(O)c(O)c1)C(=O)O` [α-methyl-3,4-dhydroxy-L-phenylalanine], the IC50 (tyrosine hydroxylase [1]; [9]) is listed as 1500 µM.

For `C[C@@](N)(Cc1ccc(O)cc1)C(=O)O` [α-methyl-D-tyrosine], the IC50 (tyrosine hydroxylase [1]; [7]) is given as over 1000 µM.

For `C[C@](N)(Cc1ccc(O)cc1)C(=O)O` [α-methyl-L-tyrosine], the “% Inhibition” value (tyrosine hydroxylase [2]; [8]) is given as 86%, the “inhibition of tyrosine hydroxylase” value (tyrosine hydroxylase [2]; concentration of 10^−4M, guinea pig brain particle preparations) is given as 86% and the “metabolites recovered in the urine” value ([5]; alpha-methyl-dopa, alpha-methyl-dopamine, alpha-methyl-norepinephrine) is given as “relatively little”. For the same molecule, the oral absorption [5] was about 69%, the IC50 (tyrosine hydroxylase [1]; bovine adrenal gland preparations, read-out: concentration inhibiting tyrosine hydroxylase by 50%) was 25 µM and the “deposition of α-synuclein” value [6] was “blunted deposition of α-synuclein”. The “levels of oxidized dopamine” value [6] was “lower levels of oxidized dopamine” and the oxidative stress [6] was “reduced oxidative stress”.
